Converted amounts (≈) assume the structure as drawn. Like-named read-outs stand apart in the source and are kept apart here. Where a SMILES comes first, the peptide text is derived from it.
How the values were obtained:
MDREC 1238 = format: cell-based, Escherichia coli
In short: (§1)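 Each strain is brought to 2×10^6 CFU in nutrient-sufficient Mueller-Hinton medium and dispensed into wells. Peptide solutions, stepwise diluted 2:1 in the same medium, are then added. The minimal concentration preventing growth gives the MIC.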

MDRST 8007 = test: Minimal inhibitory concentration (MIC), single agent; format: cell-based, Salmonella typhimurium; conditions: agent alone
In short: as §1

MDRAB 12035 = test: MIC of antibiotic during combined treatment with antimicrobial peptide; format: cell-based, Acinetobacter baumannii
In short: (§2)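 Antibiotic MIC came from antibiotic dilutions added to bacteria (2×10^6 CFU/ml, MH medium) already combined with peptide serially diluted 2:1 from its own MIC. Swapping the roles of the two agents gave the peptide MIC.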

MDREC 1229 = format: cell-based, Escherichia coli
In short: as §2

E. coli = format: cell-based, Escherichia coli; conditions: E. coli
In short: as §2

MDRAB 12036 = format: cell-based, Acinetobacter baumannii
In short: as §1

S. epidermidis = test: microbe, parasite or virus in culture; format: cell-based, Staphylococcus epidermidis
In short: as §1

MDRST 8009 = format: cell-based, Salmonella typhimurium; conditions: agent alone
In short: as §1

MRSA 3114 = format: cell-based, Staphylococcus aureus; conditions: 3114
In short: as §1

MRSA 3126 = format: cell-based, Staphylococcus aureus; conditions: 3126
In short: as §1

MDRPA 2002 = format: cell-based, Pseudomonas aeruginosa
In short: as §1

MDRPA 2003 = format: cell-based, Pseudomonas aeruginosa
In short: as §1

A. baumannii = test: MIC of antimicrobial peptide during combined treatment with antibiotic; format: cell-based, Acinetobacter baumannii
In short: as §2

[1] = peptide treatment concentration 1 μg/ml
[2] = peptide treatment concentration 2 μg/ml
[3] = peptide treatment concentration 4 μg/ml
[4] = peptide treatment concentration 6 μg/ml
[5] = peptide treatment concentration 8 μg/ml
[6] = peptide treatment concentration 16 μg/ml
[7] = peptide treatment concentration 32 μg/ml
[8] = peptide treatment concentration 64 μg/ml
[9] = with Erythromycin […] (Conc./MIC 1)

`CC[C@H](C)[C@H](NC(=O)[C@H](CCCCN)NC(=O)[C@H](Cc1c[nH]c2ccccc12)NC(=O)[C@@H](N)CCCNC(=N)N)C(=O)N[C@@H](Cc1ccccc1)C(=O)N[C@@H](CCCCN)C(=O)N[C@@H](CCCCN)C(=O)N[C@H](C(=O)N1CCC[C@H]1C(=O)N[C@@H](CCCCN)C(=O)N[C@@H](CC(C)C)C(=O)N[C@@H](CC(C)C)C(=O)N[C@@H](Cc1c[nH]cn1)C(=O)N[C@@H](CO)C(=O)N[C@@H](Cc1ccccc1)C(=O)N[C@@H](CCCCN)C(=O)N[C@@H](CCCCN)C(=O)N[C@@H](Cc1ccccc1)C(N)=O)[C@@H](C)CC` [PapMA-7, RWK IFK KIP KLL HSF KKF-NH2] (H-RWKIFKKIPKLLHSFKKF-NH2; N-terminus assumed) was tested, and the “Minimal inhibitory concentration MIC” value (MDREC 1238) was 64 µg/mL (≈ 27.3 µM), the “Minimal inhibitory concentration MIC” value (MDRST 8007) was 32 µg/mL (≈ 13.7 µM) and the “Erythromycin MIC during combined treatment with peptide” value (MDRAB 12035; [1]) was 8 µg/mL. The “Linezolid MIC during combined treatment with peptide” value (MDRAB 12035; [1]) was 64 µg/mL, the “Vancomycin MIC during combined treatment with peptide” value (MDRAB 12035; [1]) was 128 µg/mL and the “Erythromycin MIC during combined treatment with peptide” value (MDRAB 12035; [2]) was 4 µg/mL. For the same molecule, the “Linezolid MIC during combined treatment with peptide” value (MDRAB 12035; [2]) was 32 µg/mL, the “Vancomycin MIC during combined treatment with peptide” value (MDRAB 12035; [2]) was 32 µg/mL and the “Erythromycin MIC during combined treatment with peptide” value (MDRAB 12035; [3]) was 2 µg/mL. The “Linezolid MIC during combined treatment with peptide” value (MDRAB 12035; [3]) was 8 µg/mL, the “Vancomycin MIC during combined treatment with peptide” value (MDRAB 12035; [3]) was 8 µg/mL and the “Erythromycin MIC during combined treatment with peptide” value (MDRAB 12035; [4]) was 0.5 µg/mL. The “Linezolid MIC during combined treatment with peptide” value (MDRAB 12035; [4]) was 4 µg/mL, the “Vancomycin MIC during combined treatment with peptide” value (MDRAB 12035; [4]) was 4 µg/mL and the “Erythromycin MIC during combined treatment with peptide” value (MDRAB 12035; [5]) was 0.125 µg/mL. For the same molecule, the “Linezolid MIC during combined treatment with peptide” value (MDRAB 12035; [5]) was 2 µg/mL, the “Vancomycin MIC during combined treatment with peptide” value (MDRAB 12035; [5]) was 2 µg/mL and the “Erythromycin MIC during combined treatment with peptide” value (MDRAB 12035; [6]) was 0.0625 µg/mL. The “Linezolid MIC during combined treatment with peptide” value (MDRAB 12035; [6]) was 1 µg/mL, the “Vancomycin MIC during combined treatment with peptide” value (MDRAB 12035; [6]) was 1 µg/mL and the “Erythromycin MIC during combined treatment with peptide” value (MDRAB 12035; [7]) was 0 µg/mL. The “Linezolid MIC during combined treatment with peptide” value (MDRAB 12035; [7]) was 0 µg/mL, the “Vancomycin MIC during combined treatment with peptide” value (MDRAB 12035; [7]) was 0 µg/mL and the “Erythromycin MIC during combined treatment with peptide” value (MDRAB 12035; [8]) was 0 µg/mL. For the same molecule, the “Linezolid MIC during combined treatment with peptide” value (MDRAB 12035; [8]) was 0 µg/mL, the “Vancomycin MIC during combined treatment with peptide” value (MDRAB 12035; [8]) was 0 µg/mL and the “Peptide MIC” value (MDREC 1229; [9]) was 0 µg/mL. The “Peptide MIC” value (MDREC 1229; with Linezolid 512 μg/ml (Conc./MIC 1)) was 0 µg/mL, the “Peptide MIC” value (E. coli; [9]) was 0 µg/mL and the “Peptide MIC” value (E. coli; with Linezolid […] (Conc./MIC 1)) was 0 µg/mL. For the same molecule, the “Peptide MIC” value (E. coli; with Vancomycin 1024 μg/ml (Conc./MIC 1)) was 0 µg/mL, the “Minimal inhibitory concentration MIC” value (MDRAB 12036) was 32 µg/mL (≈ 13.7 µM) and the “Minimal inhibitory concentration MIC” value (S. epidermidis) was greater than 128 µg/mL. For the same molecule, the “Minimal inhibitory concentration MIC” value (MDRST 8009) was 32 µg/mL (≈ 13.7 µM), the “Minimal inhibitory concentration MIC” value (MRSA 3114) was greater than 128 µg/mL and the “Minimal inhibitory concentration MIC” value (MRSA 3126) was greater than 128 µg/mL. For the same molecule, the “Minimal inhibitory concentration MIC” value (MDRPA 2002) was 16 µg/mL (≈ 6.83 µM), the “Minimal inhibitory concentration MIC” value (MDRPA 2003) was 16 µg/mL (≈ 6.83 µM) and the “Peptide MIC during treatment with antibiotic” value (“Peptide MIC during treatment” below) (A. baumannii; erythromycin 4 μg/ml (Conc./MIC 1/8)) was 2 µg/mL. For the same molecule, the “Peptide MIC during treatment” value (A. baumannii; erythromycin 8 μg/ml (Conc./MIC 1/4)) was 2 µg/mL, the “Peptide MIC during treatment” value (A. baumannii; erythromycin 16 μg/ml (Conc./MIC 1/2)) was 1 µg/mL and the “Peptide MIC during treatment” value (A. baumannii; erythromycin 32 μg/ml (Conc./MIC 1)) was 0 µg/mL. The “Peptide MIC during treatment” value (A. baumannii; linezolid 32 μg/ml (Conc./MIC 1/8)) was 2 µg/mL, the “Peptide MIC during treatment” value (A. baumannii; linezolid 64 μg/ml (Conc./MIC 1/4)) was 2 µg/mL and the “Peptide MIC during treatment” value (A. baumannii; linezolid […] (Conc./MIC 1)) was 0 µg/mL. The “Peptide MIC during treatment” value (A. baumannii; linezolid […] (Conc./MIC 1/2)) was 1 µg/mL.

Reference: US11214594B2, “Antimicrobial peptide having synergistic antibacterial effect with antibiotics on multidrug resistant bacteria, and use thereof” (priority 2016, dated 2022)
